Results on 14 molecules are retold here after PubChem BioAssay (NCI).

Among the test systems are A498 renal; ACHN renal; HOP-62 NSCLC; K-562 leukemia; NCI-H226 lung; NCI-H460 lung; SF-268 CNS; SK-MEL-28 melanoma; T-47D breast.
Common to all, as to assay: inhibition of tumour cell growth, NCI panel, 48 h

The structures appear in SMILES notation.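 A five-concentration, 48-hour dose response in 96-well plates underlies each endpoint, interpolated linearly between surrounding concentrations. GI50 is the concentration that inhibits growth by half. TGI: total growth inhibition.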

Take `Cc1[nH]nc2c1N=C(c1ccccc1Cl)c1cc([N+](=O)[O-])ccc1N2`: the GI50 in the assay with A498 renal was 0.151 µM; in the assay with ACHN renal, 1.07 µM; in the assay on HOP-62 NSCLC, 1.02 µM; in the assay with K-562 leukemia it was 0.175 µM; in the assay on NCI-H226 lung it was 4.08 µM; in the assay with NCI-H460 lung, 0.484 µM. The GI50 in the assay on SF-268 CNS was 1.14 µM; in the assay with SK-MEL-28 melanoma it was more than 25 µM; in the assay on T-47D breast it was more than 25 µM. In addition, the TGI is 1.62 µM in the assay with A498 renal; more than 15.3 µM in the assay with ACHN renal; more than 25 µM with HOP-62 NSCLC; more than 25 µM in the assay on K-562 leukemia; more than 19.6 µM in the assay on NCI-H226 lung; more than 25 µM with NCI-H460 lung. For the same molecule, the TGI in the assay on SF-268 CNS, with SK-MEL-28 melanoma and with T-47D breast was more than 25 µM in each case.
Turning to `Cc1ccc2c(c1)CNc1ccc(C)cc1CN2`, the TGI with ACHN renal, with HOP-62 NSCLC, with K-562 leukemia, in the assay on NCI-H226 lung, in the assay with NCI-H460 lung and in the assay on SF-268 CNS was more than 100 µM throughout.
Consider `CC1(O)CCC2(C#N)CCC1C2O` (configuration not stated), for which the TGI in the assay with A498 renal, with ACHN renal, with HOP-62 NSCLC, with K-562 leukemia, in the assay with NCI-H226 lung and with NCI-H460 lung was more than 100 µM in each case. Further, the TGI in the assay with SF-268 CNS and with SK-MEL-28 melanoma was more than 100 µM in each case.
As to `C=CCn1cc(C(=O)NC(=O)NCCCCCOC(=O)CCCCCCCCCCC(=O)OCCCCCNC(=O)NC(=O)c2cn(CC=C)c(=O)n(C)c2=O)c(=O)n(C)c1=O`, the TGI in the assay with A498 renal, in the assay with ACHN renal, in the assay on HOP-62 NSCLC, in the assay on K-562 leukemia, in the assay with NCI-H226 lung and in the assay with NCI-H460 lung was more than 100 µM each time. Besides, the TGI in the assay with SF-268 CNS and with SK-MEL-28 melanoma was more than 100 µM throughout.
`Cc1c2c(cc3c(=O)ccn(CCN(C)C)c13)c(=O)ccn2CCN(C)C`: the TGI with A498 renal came out at 38 µM; in the assay with ACHN renal, 26.3 µM; in the assay with HOP-62 NSCLC it was 29.1 µM; in the assay on K-562 leukemia it was 44.9 µM; in the assay with NCI-H226 lung, 31.7 µM; in the assay with NCI-H460 lung it was 14.1 µM. The TGI in the assay on SF-268 CNS worked out at 21.8 µM; in the assay on SK-MEL-28 melanoma, 35.5 µM.
Consider `CCSc1nnc(-c2ccc3ccccc3c2O)n1-c1ccc(Cl)cc1`, for which the GI50 with A498 renal was more than 100 µM; in the assay with ACHN renal, 4.99 µM; in the assay with HOP-62 NSCLC, 22.1 µM; with K-562 leukemia, 4.04 µM; in the assay with NCI-H226 lung it was 7.46 µM; in the assay on NCI-H460 lung it was 3.27 µM. Moreover, the results for the GI50 with SF-268 CNS, in the assay on SK-MEL-28 melanoma and in the assay with T-47D breast were 26.1 µM, more than 100 µM and 8.96 µM, respectively. Also, the TGI with A498 renal, with ACHN renal, in the assay on HOP-62 NSCLC, with K-562 leukemia, in the assay with NCI-H226 lung and in the assay on NCI-H460 lung was more than 100 µM throughout. The TGI in the assay on SF-268 CNS, in the assay on SK-MEL-28 melanoma and in the assay with T-47D breast was more than 100 µM throughout.
Consider `N#C/C(=C\c1ccc(C(O)P(=O)(O)O)cc1)C(N)=O` (configuration not stated), for which the TGI in the assay with A498 renal, in the assay on ACHN renal, in the assay with HOP-62 NSCLC, in the assay with K-562 leukemia, in the assay with NCI-H226 lung and in the assay on NCI-H460 lung was more than 100 µM throughout. For the same molecule, the TGI in the assay on SF-268 CNS and in the assay with SK-MEL-28 melanoma was more than 100 µM in each case.
Regarding `c1ccc(COC2(OCc3ccccc3)CC3OC2C2NN=NC32)cc1` (configuration not stated), the TGI in the assay with A498 renal was more than 100 µM; in the assay with ACHN renal, more than 100 µM; in the assay on HOP-62 NSCLC, more than 100 µM; in the assay with K-562 leukemia, 38.6 µM; with NCI-H226 lung, 39.3 µM; with NCI-H460 lung, more than 100 µM. In addition, the TGI with SF-268 CNS was found to be 51 µM; in the assay with SK-MEL-28 melanoma it was 35.4 µM.
`COc1cc2c(cn1)[nH]c1ccccc12`: the TGI in the assay with ACHN renal, in the assay on HOP-62 NSCLC, in the assay with K-562 leukemia, in the assay on NCI-H226 lung, in the assay with NCI-H460 lung and in the assay on SF-268 CNS was more than 100 µM in each case. The molecule also came in with a TGI in the assay with SK-MEL-28 melanoma of more than 100 µM.
Consider `NNC(=O)/C(NC(=O)c1ccccc1)=C(\N)c1ccc(Cl)cc1`, for which the TGI in the assay with A498 renal, in the assay with ACHN renal, in the assay on HOP-62 NSCLC, in the assay on K-562 leukemia, in the assay with NCI-H226 lung and with NCI-H460 lung was more than 100 µM each time. For the same molecule, the TGI in the assay on SF-268 CNS and in the assay on SK-MEL-28 melanoma was more than 100 µM each time.
`CC1C(=O)O[C@H]2C1CC[C@@]1(C)[C@H](O)CC[C@@]13C[C@]2(O)OO3` (some centres not stated): the TGI with A498 renal, in the assay on ACHN renal, in the assay on HOP-62 NSCLC, in the assay on K-562 leukemia, in the assay on NCI-H226 lung and with NCI-H460 lung was more than 100 µM throughout. Moreover, the TGI with SF-268 CNS and in the assay with SK-MEL-28 melanoma was more than 100 µM each time.
Consider `COc1ccc(-c2c(N)[n+]([O-])c3ccccc3[n+]2[O-])cc1OC`, for which the TGI with A498 renal, in the assay on ACHN renal, with HOP-62 NSCLC, with K-562 leukemia, in the assay on NCI-H226 lung and in the assay on NCI-H460 lung was more than 100 µM throughout. The TGI in the assay on SF-268 CNS and in the assay on SK-MEL-28 melanoma was more than 100 µM in each case.
`O=C(c1ccc(Cl)cc1)c1ccc(OCCSCCCCCCCCCCSCCOc2ccc(C(=O)c3ccc(Cl)cc3)cc2)cc1`: the TGI with A498 renal, with ACHN renal, in the assay with HOP-62 NSCLC, in the assay on K-562 leukemia, in the assay on NCI-H226 lung and in the assay with NCI-H460 lung was more than 100 µM each time. Moreover, the TGI with SF-268 CNS and in the assay on SK-MEL-28 melanoma was more than 100 µM in each case.
On to `COc1cc2c(c(OC)c1OC)-c1ccc(OC)c(=O)cc1[C@@H](N(C)C=O)CC2`, for which the TGI is 0.665 µM in the assay on A498 renal; more than 100 µM in the assay on ACHN renal; more than 100 µM in the assay with HOP-62 NSCLC; more than 100 µM in the assay on K-562 leukemia; more than 100 µM with SF-268 CNS; more than 100 µM in the assay with SK-MEL-28 melanoma.
